Assay results as given in patent US20230123277A1, “COMPOSITIONS COMPRISING 2'-DEOXYCYTIDINE ANALOGS AND USE THEREOF FOR THE TREATMENT OF SICKLE CELL DISEASE AND THALASSEMIA” (AkiraBio, Inc., priority 2021, published 2023).

Assays:
[1] = tested on: pediatric brain tumor models; conditions: background statement; cited from earlier work
[2] = Relative thermodynamic stability of crystalline polymorphs (DSC); assay type: physicochemical; conditions: Form A compared with Form F, from melting temperatures
Method: DSC ANALYSIS. Thermal events (i.e., melting, re-crystallization) were obtained from DSC thermograms, recorded with a heat flux DSC3+ STARe system (Mettler-Toledo GmbH, Switzerland). The DSC3+ was calibrated for temperature and enthalpy with a small piece of indium (m.p.=156.6° C.; δHf=28.45 J/g) and zinc (m.p.=419.6° C.; δHf=107.5 J/g). Samples (circa 2 mg) were sealed in standard 40 μL aluminum pans, pin-holed and heated in the DSC from 25° C. to 300° C., at a heating rate of 10° C./min. Dry N2 gas, at a flow rate of 50 mL/min was used to purge the DSC equipment during measurement. The cycling DSC experiments were measured in standard 40 μL aluminum pans, pin-holed and heated in the DSC from 25° C. to variable temperatures, then cooled back to 25° C. The heating and cooling rate was 10° C./min. Dry N2 gas, at a flow rate of 50 mL/min was used to purge the DSC equipment during measurement. Afterwards the samples were recovered and analyzed by HT-XRPD.
Form A obtained from the solvent equilibration experiment at RT in TFE was used for the analytical characterization. […] (FIG. 12A). […] The LCMS analysis confirmed the Form A's integrity with a purity of 100% (area %) (FIG. 12C).
Form F obtained from the evaporative crystallization experiment using DMF/acetonitrile (80/20, v/v) was used for characterization. […]

Row | thermodynamic stability of the polymorph [2] | Structure (SMILES) | therapeutic response [1]
1 |  | Nc1ncn([C@H]2C[C@H](O)[C@@H](CO)S2)c(=O)n1 [5-aza-4′-thio-2′-deoxycytidine] | no significant therapeutic response
2 |  | Nc1nc(=O)n([C@H]2C[C@H](O)[C@@H](CO)O2)cc1F [5-fluoro-2′-deoxycytidine, reference compound] | no significant therapeutic response
3 | thermodynamically more stable form | Nc1ncn([C@H]2C[C@H](O)[C@@H](CO)S2)c(=O)n1 [Form A, 5-aza-4′-thio-2′-deoxycytidine] | 
